PubChem BioAssay (NCI)
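Five compound concentrations were applied to cells in 96-well plates for 48 hours; endpoints were derived by simple linear interpolation of the resulting dose-response curve. At the TGI there is no net growth.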

Columns and labels:
Assay in all cases: DTP human tumour cell line panel, 48 h
786-0 renal = tested on: 786-0 renal
A498 renal = tested on: A498 renal
A549 NSCLC = tested on: A549 NSCLC
ACHN renal = tested on: ACHN renal
CAKI-1 renal = tested on: CAKI-1 renal
CCRF-CEM leukemia = tested on: CCRF-CEM leukemia
COLO 205 colon = tested on: COLO 205 colon
DMS 114 small cell lung = tested on: DMS 114 small cell lung
DMS 273 small cell lung = tested on: DMS 273 small cell lung
EKVX NSCLC = tested on: EKVX NSCLC
HCC-2998 colon = tested on: HCC-2998 colon
HCT-116 colon = tested on: HCT-116 colon
HCT-15 colon = tested on: HCT-15 colon
HL-60(TB) leukemia = tested on: HL-60(TB) leukemia
HOP-18 NSCLC = tested on: HOP-18 NSCLC
HOP-62 NSCLC = tested on: HOP-62 NSCLC
HOP-92 NSCLC = tested on: HOP-92 NSCLC
HT29 colon = tested on: HT29 colon
IGROV1 ovarian = tested on: IGROV1 ovarian
K-562 leukemia = tested on: K-562 leukemia
KM12 colon = tested on: KM12 colon
KM20L2 colon = tested on: KM20L2 colon
LOX IMVI melanoma = tested on: LOX IMVI melanoma
LXFL 529 NSCLC = tested on: LXFL 529 NSCLC
M14 melanoma = tested on: M14 melanoma
M19-MEL melanoma = tested on: M19-MEL melanoma
MALME-3M melanoma = tested on: MALME-3M melanoma
MOLT-4 leukemia = tested on: MOLT-4 leukemia
NCI-H226 lung = tested on: NCI-H226 lung
NCI-H23 lung = tested on: NCI-H23 lung
NCI-H460 lung = tested on: NCI-H460 lung
NCI-H522 lung = tested on: NCI-H522 lung
OVCAR-3 ovarian = tested on: OVCAR-3 ovarian
OVCAR-4 ovarian = tested on: OVCAR-4 ovarian
OVCAR-5 ovarian = tested on: OVCAR-5 ovarian
OVCAR-8 ovarian = tested on: OVCAR-8 ovarian
RPMI-8226 leukemia = tested on: RPMI-8226 leukemia
RXF 393 renal = tested on: RXF 393 renal
SF-268 CNS = tested on: SF-268 CNS
SF-295 CNS = tested on: SF-295 CNS
SF-539 CNS = tested on: SF-539 CNS
SK-MEL-2 melanoma = tested on: SK-MEL-2 melanoma
SK-MEL-28 melanoma = tested on: SK-MEL-28 melanoma
SK-MEL-5 melanoma = tested on: SK-MEL-5 melanoma
SK-OV-3 ovarian = tested on: SK-OV-3 ovarian
SN12C renal = tested on: SN12C renal
SNB-19 CNS = tested on: SNB-19 CNS
SNB-75 CNS = tested on: SNB-75 CNS
SNB-78 CNS = tested on: SNB-78 CNS
SR leukemia = tested on: SR leukemia
SW-620 colon = tested on: SW-620 colon
TK-10 renal = tested on: TK-10 renal
U251 CNS = tested on: U251 CNS
UACC-257 melanoma = tested on: UACC-257 melanoma
UACC-62 melanoma = tested on: UACC-62 melanoma
UO-31 renal = tested on: UO-31 renal
XF 498 CNS = tested on: XF 498 CNS
DLD-1 colon = tested on: DLD-1 colon
RXF-631 renal = tested on: RXF-631 renal

In the case of `CCCCc1c2c(nc3c1CCc1cc(C=O)c(N)nc1-3)/C(=C/c1ccccc1)CCC2`, the TGI (786-0 renal) is reported as greater than 100 µM, the TGI (A498 renal) is reported as 47.5 µM and the TGI (A549 NSCLC) is reported as 61.5 µM. The TGI (ACHN renal) was greater than 100 µM, the TGI (CAKI-1 renal) was greater than 100 µM and the TGI (CCRF-CEM leukemia) was greater than 100 µM. For the same molecule, the TGI (COLO 205 colon) was 32.3 µM, the TGI (DMS 114 small cell lung) was greater than 100 µM and the TGI (DMS 273 small cell lung) was greater than 100 µM. For the same molecule, the TGI (EKVX NSCLC) was greater than 100 µM, the TGI (HCC-2998 colon) was 45.1 µM and the TGI (HCT-116 colon) was greater than 100 µM. The TGI (HCT-15 colon) was greater than 100 µM, the TGI (HL-60(TB) leukemia) was greater than 100 µM and the TGI (HOP-18 NSCLC) was greater than 100 µM. The TGI (HOP-62 NSCLC) was greater than 100 µM, the TGI (HOP-92 NSCLC) was greater than 100 µM and the TGI (HT29 colon) was greater than 100 µM. For the same molecule, the TGI (IGROV1 ovarian) was greater than 100 µM, the TGI (K-562 leukemia) was greater than 100 µM and the TGI (KM12 colon) was greater than 100 µM. The TGI (KM20L2 colon) was greater than 100 µM, the TGI (LOX IMVI melanoma) was greater than 100 µM and the TGI (LXFL 529 NSCLC) was greater than 100 µM. For the same molecule, the TGI (M14 melanoma) was greater than 100 µM, the TGI (M19-MEL melanoma) was greater than 100 µM and the TGI (MALME-3M melanoma) was greater than 100 µM. The TGI (MOLT-4 leukemia) was greater than 100 µM, the TGI (NCI-H226 lung) was greater than 100 µM and the TGI (NCI-H23 lung) was greater than 100 µM. It also gave a TGI (NCI-H460 lung) greater than 100 µM, a TGI (NCI-H522 lung) greater than 100 µM and a TGI (OVCAR-3 ovarian) greater than 100 µM. It also gave a TGI (OVCAR-4 ovarian) greater than 100 µM, a TGI (OVCAR-5 ovarian) greater than 100 µM and a TGI (OVCAR-8 ovarian) greater than 100 µM. For the same molecule, the TGI (RPMI-8226 leukemia) was greater than 100 µM, the TGI (RXF 393 renal) was greater than 100 µM and the TGI (SF-268 CNS) was greater than 100 µM. It also gave a TGI (SF-295 CNS) greater than 100 µM, a TGI (SF-539 CNS) greater than 100 µM and a TGI (SK-MEL-2 melanoma) greater than 100 µM. The TGI (SK-MEL-28 melanoma) was greater than 100 µM, the TGI (SK-MEL-5 melanoma) was greater than 100 µM and the TGI (SK-OV-3 ovarian) was greater than 100 µM. It also gave a TGI (SN12C renal) greater than 100 µM, a TGI (SNB-19 CNS) greater than 100 µM and a TGI (SNB-75 CNS) greater than 100 µM. For the same molecule, the TGI (SNB-78 CNS) was greater than 100 µM, the TGI (SR leukemia) was greater than 100 µM and the TGI (SW-620 colon) was greater than 100 µM. For the same molecule, the TGI (TK-10 renal) was greater than 100 µM, the TGI (U251 CNS) was greater than 100 µM and the TGI (UACC-257 melanoma) was greater than 100 µM. The TGI (UACC-62 melanoma) was greater than 100 µM, the TGI (UO-31 renal) was greater than 100 µM and the TGI (XF 498 CNS) was greater than 100 µM.
`Cn1c(=O)c(C2c3ccccc3Oc3c2c(=O)n(C)c2ccccc32)c(O)c2ccccc21` (centres undefined) gave a TGI (786-0 renal) greater than 100 µM, a TGI (A549 NSCLC) greater than 100 µM and a TGI (ACHN renal) greater than 100 µM. It also gave a TGI (CAKI-1 renal) greater than 100 µM, a TGI (COLO 205 colon) greater than 100 µM and a TGI (DLD-1 colon) greater than 100 µM. For the same molecule, the TGI (DMS 114 small cell lung) was greater than 100 µM, the TGI (DMS 273 small cell lung) was greater than 100 µM and the TGI (EKVX NSCLC) was greater than 100 µM. The TGI (HCC-2998 colon) was greater than 100 µM, the TGI (HCT-116 colon) was greater than 100 µM and the TGI (HCT-15 colon) was greater than 100 µM. It also gave a TGI (HL-60(TB) leukemia) of 79.2 µM, a TGI (HOP-18 NSCLC) greater than 100 µM and a TGI (HOP-62 NSCLC) greater than 100 µM. The TGI (HOP-92 NSCLC) was greater than 100 µM, the TGI (HT29 colon) was greater than 100 µM and the TGI (IGROV1 ovarian) was greater than 100 µM. For the same molecule, the TGI (K-562 leukemia) was greater than 100 µM, the TGI (KM12 colon) was greater than 100 µM and the TGI (KM20L2 colon) was greater than 100 µM. The TGI (LOX IMVI melanoma) was greater than 100 µM, the TGI (LXFL 529 NSCLC) was greater than 100 µM and the TGI (M14 melanoma) was greater than 100 µM. The TGI (M19-MEL melanoma) was greater than 100 µM, the TGI (MALME-3M melanoma) was greater than 100 µM and the TGI (MOLT-4 leukemia) was greater than 100 µM. For the same molecule, the TGI (NCI-H226 lung) was greater than 100 µM, the TGI (NCI-H23 lung) was greater than 100 µM and the TGI (NCI-H460 lung) was greater than 100 µM. For the same molecule, the TGI (NCI-H522 lung) was 54.6 µM, the TGI (OVCAR-3 ovarian) was greater than 100 µM and the TGI (OVCAR-4 ovarian) was greater than 100 µM. The TGI (OVCAR-5 ovarian) was greater than 100 µM, the TGI (OVCAR-8 ovarian) was greater than 100 µM and the TGI (RPMI-8226 leukemia) was greater than 100 µM. The TGI (RXF 393 renal) was greater than 100 µM, the TGI (RXF-631 renal) was greater than 100 µM and the TGI (SF-268 CNS) was greater than 100 µM. It also gave a TGI (SF-295 CNS) greater than 100 µM, a TGI (SF-539 CNS) greater than 100 µM and a TGI (SK-MEL-2 melanoma) greater than 100 µM. For the same molecule, the TGI (SK-MEL-28 melanoma) was greater than 100 µM, the TGI (SK-MEL-5 melanoma) was greater than 100 µM and the TGI (SK-OV-3 ovarian) was greater than 100 µM. For the same molecule, the TGI (SN12C renal) was greater than 100 µM, the TGI (SNB-19 CNS) was greater than 100 µM and the TGI (SNB-75 CNS) was greater than 100 µM. It also gave a TGI (SNB-78 CNS) greater than 100 µM, a TGI (SR leukemia) greater than 100 µM and a TGI (SW-620 colon) greater than 100 µM. The TGI (TK-10 renal) was 83.8 µM, the TGI (U251 CNS) was greater than 100 µM and the TGI (UACC-257 melanoma) was 73.7 µM. The TGI (UACC-62 melanoma) was greater than 100 µM, the TGI (UO-31 renal) was greater than 100 µM and the TGI (XF 498 CNS) was 75.9 µM.
`c1ccc(C[P+]2(c3ccccc3)CCCCC2)cc1` showed a TGI (786-0 renal) greater than 100 µM, a TGI (A498 renal) greater than 100 µM and a TGI (A549 NSCLC) greater than 100 µM. The TGI (ACHN renal) was greater than 100 µM, the TGI (CCRF-CEM leukemia) was greater than 100 µM and the TGI (COLO 205 colon) was greater than 100 µM. It also gave a TGI (DLD-1 colon) greater than 100 µM, a TGI (DMS 114 small cell lung) greater than 100 µM and a TGI (DMS 273 small cell lung) greater than 100 µM. For the same molecule, the TGI (EKVX NSCLC) was greater than 100 µM, the TGI (HCC-2998 colon) was greater than 100 µM and the TGI (HCT-116 colon) was greater than 100 µM. The TGI (HCT-15 colon) was greater than 100 µM, the TGI (HL-60(TB) leukemia) was greater than 100 µM and the TGI (HOP-18 NSCLC) was greater than 100 µM. It also gave a TGI (HOP-62 NSCLC) greater than 100 µM, a TGI (HT29 colon) greater than 100 µM and a TGI (IGROV1 ovarian) greater than 100 µM. The TGI (K-562 leukemia) was greater than 100 µM, the TGI (KM12 colon) was greater than 100 µM and the TGI (KM20L2 colon) was greater than 100 µM. The TGI (LOX IMVI melanoma) was greater than 100 µM, the TGI (LXFL 529 NSCLC) was greater than 100 µM and the TGI (M14 melanoma) was greater than 100 µM. It also gave a TGI (M19-MEL melanoma) greater than 100 µM, a TGI (MALME-3M melanoma) greater than 100 µM and a TGI (MOLT-4 leukemia) greater than 100 µM. For the same molecule, the TGI (NCI-H226 lung) was greater than 100 µM, the TGI (NCI-H23 lung) was greater than 100 µM and the TGI (NCI-H460 lung) was greater than 100 µM. The TGI (NCI-H522 lung) was greater than 100 µM, the TGI (OVCAR-3 ovarian) was greater than 100 µM and the TGI (OVCAR-4 ovarian) was greater than 100 µM. It also gave a TGI (OVCAR-5 ovarian) greater than 100 µM, a TGI (OVCAR-8 ovarian) greater than 100 µM and a TGI (RPMI-8226 leukemia) greater than 100 µM. The TGI (RXF 393 renal) was greater than 100 µM, the TGI (SF-295 CNS) was greater than 100 µM and the TGI (SF-539 CNS) was greater than 100 µM. The TGI (SK-MEL-2 melanoma) was greater than 100 µM, the TGI (SK-MEL-28 melanoma) was greater than 100 µM and the TGI (SK-MEL-5 melanoma) was 71.9 µM. It also gave a TGI (SK-OV-3 ovarian) greater than 100 µM, a TGI (SN12C renal) greater than 100 µM and a TGI (SNB-19 CNS) greater than 100 µM. The TGI (SNB-75 CNS) was greater than 100 µM, the TGI (SNB-78 CNS) was greater than 100 µM and the TGI (SR leukemia) was greater than 100 µM. It also gave a TGI (SW-620 colon) greater than 100 µM, a TGI (TK-10 renal) greater than 100 µM and a TGI (U251 CNS) greater than 100 µM. It also gave a TGI (UACC-257 melanoma) greater than 100 µM, a TGI (UACC-62 melanoma) greater than 100 µM and a TGI (UO-31 renal) greater than 100 µM. It also gave a TGI (XF 498 CNS) of 98.2 µM.
